≈ marks a conversion by molar mass, not a printed value. Where “and” joins values, the source holds several entries; their conditions need not be identical. Equal values may be shown once.
Tests used:
HCT-8 [1] = assay: Cytotoxicity against human HCT8 cells at 1.96 to 22.7 uM; assay type: cell-based; settings: hct-8, 22.7 µM
Cryptosporidium parvum = assay: Antiparasitic activity against Cryptosporidium parvum infected in human […] cells after 46 hrs by immunofluorescence method; assay type: functional, organism-based
HCT-8 [2] = assay: Cytotoxicity against human HCT8 cells assessed as effect on cell viability at 25.69 to 37.22 uM; assay type: cell-based; settings: hct-8, 37.22 µM
[3] = Cryptosporidium parvum, HCT-8, 46 h, read-out: IC50

Compound | Activity (HCT-8 [1]) | IC50 (Cryptosporidium parvum; [3]) [µg/mL] | IC50 (Cryptosporidium parvum; htc8) | Activity (HCT-8 [2])
CCOC(=O)Cc1csc(NC(=O)c2ccccc2OC(C)=O)n1 | Non-toxic | 8.4 (≈ 24.1 µM) | Not Active | 
Cc1cnc(NC(=O)c2ccccc2O)s1 | Non-toxic | > 10 | Not Active | 
O=C(Nc1nccs1)c1ccccc1O | Non-toxic | > 10 | Not Active | 
CC(=O)Oc1ccccc1C(=O)Nc1nncs1 | Non-toxic | 5 (≈ 19 µM) | Not Active | 
CSc1nnc(NC(=O)c2ccccc2OC(C)=O)s1 | Non-toxic | 6.4 (≈ 20.7 µM) | 9.2 µg/mL (≈ 29.7 µM) | Toxic
CS(=O)(=O)c1cnc(NC(=O)c2ccccc2O)s1 | Non-toxic | 6.9 (≈ 23.1 µM) | Not Active | 
COc1ccccc1C(=O)Nc1ncc([N+](=O)[O-])s1 | Non-toxic | 5.5 (≈ 19.7 µM) | Not Active | 
Cc1nc(NC(=O)c2ccccc2O)sc1[N+](=O)[O-] | Non-toxic | 0.6 (≈ 2.15 µM) | 1 µg/mL (≈ 3.58 µM) | Toxic
O=C(Nc1ncc(Cl)s1)c1ccccc1O | Non-toxic |  | 2.6 µg/mL and 6 µg/mL | Toxic
Cc1ccc(O)c(C(=O)Nc2ncc(Cl)s2)c1 | Non-toxic |  |  | 
Cc1cccc(C(=O)Nc2ncc(Cl)s2)c1O | Non-toxic | 2.3 (≈ 8.56 µM) | 4.6 µg/mL (≈ 17.1 µM) | Toxic
Cc1ccc(C(=O)Nc2ncc(Cl)s2)c(O)c1 | Non-toxic |  |  | Toxic
CC(=O)Oc1ccc(C)cc1C(=O)Nc1ncc(Cl)s1 | Non-toxic |  |  | Toxic
CC(=O)Oc1c(C)cccc1C(=O)Nc1ncc(Br)s1 | Non-toxic |  |  | Toxic
Cc1cccc(C(=O)Nc2ncc(Br)s2)c1O | Non-toxic |  |  | Toxic
CC(=O)Oc1ccccc1C(=O)Nc1ncc(Br)s1 | Non-toxic |  |  | 
CC(=O)Oc1ccc(C)cc1C(=O)Nc1ncc(Br)s1 | Non-toxic |  | 1.7 µg/mL and 4.4 µg/mL | Toxic
CC(=O)Oc1cc(C)ccc1C(=O)Nc1ncc(Br)s1 | Non-toxic |  |  | 

Compound | Activity (HCT-8 [1]) | IC50 (Cryptosporidium parvum; [3]) [µg/mL] | IC50 (Cryptosporidium parvum; htc8) | Activity (HCT-8 [2])
CC(=O)Oc1ccccc1C(=O)Nc1nc(C)c(Br)s1 | Non-toxic |  | 2.1 µg/mL and 4.8 µg/mL | 
O=C(Nc1ncc(Br)s1)c1ccccc1O | Non-toxic |  |  | 
Cc1ccc(C(=O)Nc2ncc(Br)s2)c(O)c1 | Non-toxic | 5.2 (≈ 16.6 µM) | 9.3 µg/mL (≈ 29.7 µM) | 
Cc1nc(NC(=O)c2ccccc2O)sc1Br | Non-toxic |  |  | Toxic
Cc1cccc(C(=O)Nc2nc(C)c(Br)s2)c1O | Non-toxic |  |  | Toxic
O=C(Nc1ncc(F)s1)c1ccccc1O | Non-toxic |  |  | Toxic
CCCc1cnc(NC(=O)c2ccccc2O)s1 | Non-toxic | 6.7 (≈ 25.5 µM) | Not Active | 
COc1cccc(C(=O)Nc2ncc(Br)s2)c1OC(C)=O | Non-toxic | 4.6 (≈ 12.4 µM) | Not Active | 
Cc1cccc(C(=O)Nc2nc(-c3ccccc3)c(Br)s2)c1O | Non-toxic |  |  | Toxic
O=C(Nc1nc(-c2ccccc2)c(Br)s1)c1ccccc1O | Non-toxic |  | 0.4 µg/mL and 1 µg/mL | Toxic
CC(=O)Oc1ccccc1C(=O)Nc1nnc(C(F)(F)F)s1 | Non-toxic |  |  | 
O=C(Nc1ncc(-c2ccccc2Cl)s1)c1ccccc1O | Non-toxic | 6.1 (≈ 18.4 µM) | Not Active | Toxic
O=C(Nc1ncc(C2CCCCC2)s1)c1ccccc1O | Non-toxic | > 10 | Not Active | 
CC(=O)Oc1ccccc1C(=O)Nc1ncc(S(C)(=O)=O)s1 | Non-toxic | 5 (≈ 14.7 µM) | Not Active | 
CCOC(=O)Cc1nnc(NC(=O)c2ccccc2OC(C)=O)s1 | Non-toxic | > 10 | Not Active | 
COc1cccc(C(=O)Nc2ncc([N+](=O)[O-])s2)c1O | Non-toxic |  | 0.4 µg/mL and 1 µg/mL | Toxic
CC(=O)Oc1c(C)cccc1C(=O)Nc1ncc([N+](=O)[O-])s1 | Non-toxic | 0.5 (≈ 1.56 µM) | 1 µg/mL (≈ 3.11 µM) | Toxic
CC(=O)Oc1ccccc1C(=O)Nc1ncc([N+](=O)[O-])s1 [NITAZOXANIDE] | Non-toxic |  |  | 
